Experimental data published in patent US20020058266A1, “EF-Tu protein encoded on the plastid DNA of the malaria parasite and protein synthesis inhibitors effective as anti-malarial compounds” (priority 1997, published 2002).

Legend:
[1] = system: erythrocytic stages of P.falciparum; test: Incorporation of radiotracers (3H-hypoxanthine, 14C-isoleucine) by P.falciparum growing in blood cultures; assay type: cell-based, Plasmodium falciparum
Experimental: Antibiotics—Samples of Mocimycin (kirromycin), Aurodox (N-methylated kirromycin), and Efrotomycin (a glycoside of kirromycin) were used. Aurodox was dissolved in RPMI-Albumax medium (Grande et al 1977), kirromycin was dissolved in RPMI made alkaline by addition of 1M NaOH, and efrotomycin was dissolved in ethanol before dilution in culture medium. Enacyloxin IIA was dissolved in 1% NaHCO3 prior to dilution in RPMI-Albumax medium. The antibiotic GE2270A was dissolved in 100% DMSO before dilution in culture medium. Fusidic acid (Sigma) was dissolved directly in culture medium, and thiostrepton (Sigma) in 100% DMSO before dilution in culture medium. A hemisuccinate form of thiostrepton was prepared as a potassium salt, according to Bodanszky et al 1965. Incorporation of radiotracers by P.falciparum growing in blood cultures in the presence and absence of drugs was carried out as described (Strath et al 1993).
Kirromycin: Kirromycin-resistant forms of bacterial EF-Tu are modified at one of seven amino acids along the opposing interfaces of domains I and III (Mesters et al 1994 and Abdulkarim et al 1994) and Pf EF-Tupl has a substitution at one of these sites (A375S-E.coli numbers) that could potentially confer resistance to kirromycin. To test this possibility, kirromycin (Mocimycin), its methylated derivative Aurodox or its disaccharide derivative Efrotomycin were incubated with erythrocytic stages of P.falciparum grown in cultures over a 36 hr period. The incorporation of both ^3H-hypoxanthine and ^14C-isoleucine was inhibited in a dose-dependent fashion, maximum inhibition being achieved at 100 μM kirromycin (FIG. 5). […] Once maximal depression of incorporation had been reached at any particular dose of drug, residual incorporation continued at a uniform rate thereafter. Vital staining with rhodamine 123, a fluorescent dye that concentrates within the mitochondrion (Divo et al. 1985) confirmed the parasiticidal effect, loss of specific mt staining being evident within 2-3 hours (data not shown). […] Blood cultures of P.falciparum were about 10 times more sensitive to the antibiotic than a gram-positive bacterium (Corynebacterium spp) used in parallel bioassays.

[2] = system: GTPase domain of Pf 23S rRNApl; test: Thiostrepton filter binding assay, transcripts of the GTPase domain of Pf 23S rRNApl (wild type and mutated); parameters: species or system Plasmodium falciparum
Experimental: (§1) A) Short 23S transcripts of P.falciparum (Pf) wild type rRNApl (open circle A1067) and mutated forms (open square A1067U and filled triangle A1067G), as well as Pf 28S rRNA transcripts (filled square), are compared with an optimized E.coli control transcript (filled circle). For convenience, nucleotide numbers correspond to E.coli.
(§2) Drug binding—Thiostrepton binding to short rRNA transcripts generated in vitro was assayed according to Ryan et al 1991, as modified by Clough et al 1997. […] Before […], samples were incubated on ice for 15 mins in 50 mM imidazole acetate (pH 7.6), 10 mM NH4Cl, 10 mM MgCl2, 1 mM […] and 100 μM GDP, in a final volume of 20 μl.
Having established thiostrepton's activity, we asked “does the antibiotic bind preferentially to the nuclear, mitochondrial or plastid forms of Pf 28/23 S rRNA?”. Evidence that the highest affinity interaction of thiostrepton is with 23S rRNApl was obtained from an in vitro binding assay (Ryan et al 1991). Short transcripts of wild type (wt) RNA corresponding to the GTPase domain of Pf 23S rRNApl (nts 987-1078) were transcribed in vitro from a PCR product that included a T7 promoter sequence in one of the primers. Mutated malarial rRNA sequences (E.coli numbers A1067U and A1067G) were obtained by PCR methodology and transcribed in the same way. Both wild type and modified transcript sequences were verified prior to thiostrepton binding assays. A positive control transcript was used based on the 23S rRNA sequence of E.coli with a mutation (U1061A) that increases stability and binding. […] An intermediate level of binding (˜35% of wt) was obtained with the mutation Pfpl (E.coli number A1067G). Thiostrepton binding to a transcript corresponding to the GTPase domain (nt 1334-1427) of the cytosolic Pf 28S rRNA was ˜10% of that for Pf 23S rRNApl.

[3] = system: GTPase domain of the cytosolic Pf 28S rRNA; test: Thiostrepton filter binding assay, cytosolic Pf 28S rRNA transcript; parameters: species or system Plasmodium falciparum; conditions: GTPase domain nt 1334-1427
Experimental: as §1, §2
Having established thiostrepton's activity, we asked “does the antibiotic bind preferentially to the nuclear, mitochondrial or plastid forms of Pf 28/23 S rRNA?”. Evidence that the highest affinity interaction of thiostrepton is with 23S rRNApl was obtained from an in vitro binding assay (Ryan et al 1991). Short transcripts of wild type (wt) RNA corresponding to the GTPase domain of Pf 23S rRNApl (nts 987-1078) were transcribed in vitro from a PCR product that included a T7 promoter sequence in one of the primers. Mutated malarial rRNA sequences (E.coli numbers A1067U and A1067G) were obtained by PCR methodology and transcribed in the same way. […]

[4] = system: GTPase domain of the E. coli 23S rRNA; test: Thiostrepton binding assay, E. coli 23S rRNA transcript; conditions: contains the A at position 1067
Experimental: The binding was specific. It depended to a large extent on the presence of an A residue at the position corresponding to E. coli position 1067. […] A transcript corresponding to the GTPase domain of the cytosolic malaria 28S rRNA also bound thiostrepton poorly.
as §2
Having established thiostrepton's activity, we asked “does the antibiotic bind preferentially to the nuclear, mitochondrial or plastid forms of Pf 28/23 S rRNA?”. Evidence that the highest affinity interaction of thiostrepton is with 23S rRNApl was obtained from an in vitro binding assay (Ryan et al 1991). Short transcripts of wild type (wt) RNA corresponding to the GTPase domain of Pf 23S rRNApl (nts 987-1078) were transcribed in vitro from a PCR product that included a T7 promoter sequence in one of the primers. Mutated malarial rRNA sequences (E.coli numbers A1067U and A1067G) were obtained by PCR methodology and transcribed in the same way. Both wild type and modified transcript sequences were verified prior to thiostrepton binding assays. […]

[5] = system: GTPase domain of the 23S rRNApl of Toxoplasma gondii; test: Thiostrepton filter binding assay, T. gondii 23S rRNApl transcripts
Experimental: B) T. gondii wild type rRNApl transcript (filled triangle) and mutated transcript (open triangle) compared with control transcripts from P.falciparum rRNApl (open circle) and E.coli (filled circle).
as §2
In the same way, we tested a transcript corresponding to the GTPase domain of the 23S rRNApl of Toxoplasma gondii (Tg), a related apicomplexan that is an important opportunistic pathogen in patients with AIDS. […] This was found also to be the case with a transcript derived from a PCR product covering the GTPase domain of Tgpl 23S rRNA (nt 926-1024) (FIG. 8B). Corrective mutation of the Tgpl transcript (E. coli number […]) conferred a significant increase (×5) in thiostrepton binding (FIG. 8B).

For `C=C(NC(=O)C(=C)NC(=O)c1csc(C2=N[C@@H]3c4csc(n4)[C@H]4NC(=O)c5csc(n5)[C@H]([C@](C)(O)[C@@H](C)O)NC(=O)[C@H]5CSC(=N5)/C(=C/C)NC(=O)[C@H]([C@@H](C)O)NC(=O)c5csc(n5)[C@]3(CC2)NC(=O)[C@H](C)NC(=O)C(=C)NC(=O)[C@H](C)NC(=O)[C@H]([C@@H](C)CC)N[C@@H]2C=Cc3c([C@H](C)O)cc(nc3[C@H]2O)C(=O)O[C@@H]4C)n1)C(N)=O` [thiostrepton], the “onset of inhibition of protein synthesis” value [1] was 5 h, the IC50 ([1]; Plasmodium falciparum, 3 h, read-out: 50% inhibition of uptake of 3H-hypoxanthine and 14C-isoleucine) was 3 to 5 µM and the “thiostrepton binding, mutation A1067G” value ([2]; Pfpl transcript, E.coli number A1067G) was ~35 % of wt. For the same compound, the “thiostrepton binding, mutation A1067U” value ([2]; Pfpl transcript, E.coli number A1067U) was ~14 % of wt, the “thiostrepton binding to wild type transcript” value ([2]; short transcript of the GTPase domain, malaria plastid) was “bound thiostrepton strongly” and the “thiostrepton binding to Pf 28S rRNA transcript relative to Pf 23S rRNApl” value [3] was roughly 10%. The “thiostrepton binding to E. coli transcript” value [4] was “bind thiostrepton strongly”, the “increase in thiostrepton binding by corrective mutation U1077A” value ([5]; Tgpl transcript, E. coli number U1077A versus wild type) was 5 × and the “thiostrepton binding to wild type Tgpl transcript” value ([5]; wild type has substitution E.coli number A1077U, nt 926-1024) was “inhibits binding”.
